Measured values: patent US20230263822A1, “MODULATION OF FACTOR 11 EXPRESSION” (Ionis Pharmaceuticals, Inc., priority 2008, published 2023)
Strand notation (5' to 3'): a small letter for the sugar, then the base; units joined by * are phosphorothioate-linked, units joined directly phosphodiester-linked; [ ] holds rarer units or linkages, { } end groups; capitals alone tell only the bases. e = 2'-O-(2-methoxyethyl) (MOE); [5mC] = 5-methylcytosine; d = 2'-deoxy (DNA)

Assays:
human Factor 11 mRNA = assay: Dose-dependent inhibition of human Factor 11 in HepG2 cells, electroporation 375-12,000 nM (Example 32); format: cell-based; conditions: approx. 16 hours, relative to untreated control cells
Description: These gapmers were tested at various doses in HepG2 cells. Cells were plated at a density of 20,000 cells per well and transfected using electroporation with 375 nM, 750 nM, 1,500 nM, 3,000 nM, 6,000 nM and 12,000 nM concentrations of antisense oligonucleotide, as specified in Table 47. After a treatment period of approximately 16 hours, RNA was isolated from the cells and Factor 11 mRNA levels were measured by quantitative real-time PCR. Human Factor 11 primer probe set RTS 2966 was used to measure mRNA levels. Factor 11 mRNA levels were adjusted according to total RNA content, as measured by RIBOGREEN. Results are presented as percent inhibition of Factor 11, relative to untreated control cells.
ISIS 416850, ISIS 416858, ISIS 445522, and ISIS 445531 (see Table 45 above) were re-tested in vitro along with the microwalk gapmers under the same conditions described above.
The first two listed gapmers in Table 47 are the original gapmers (ISIS 416850 and ISIS 416858) from which the remaining gapmers were designed via microwalk and are designated by an asterisk.

[1] = Tolerability in CD1 mice: liver function, ALT, AST, bilirubin, albumin (Example 33); conditions: plasma, 50 mg/kg s.c. twice a week
Description: (§1) A control group of five mice was injected subcutaneously with PBS for 2 weeks. All experimental groups (i.e. ASO treated mice at 2, 4, 6 weeks) were compared to the control group (i.e. PBS, 2 weeks).
To evaluate the effect of ISIS oligonucleotides on hepatic function, plasma concentrations of transaminases were measured using an automated clinical chemistry analyzer (Hitachi Olympus AU400e, Melville, N.Y.). […] Plasma levels of bilirubin and albumin were also measured using the same clinical chemistry analyzer and expressed in mg/dL.

[2] = Tolerability in CD1 mice: kidney function, BUN, creatinine (Example 33); conditions: plasma, 50 mg/kg s.c. twice a week
Description: as §1
To evaluate the effect of ISIS oligonucleotides on kidney function, plasma concentrations of blood urea nitrogen (BUN) and creatinine were measured using an automated clinical chemistry analyzer (Hitachi Olympus AU400e, Melville, N.Y.).

[3] = Liver function, ALT, AST, bilirubin in cynomolgus monkeys (Example 45); format: in vivo; conditions: plasma
Description: Groups, each consisting of two male and three female monkeys, were injected subcutaneously with ISIS 416838, ISIS 416850, ISIS 416858, ISIS 416864, or ISIS 417002 in escalating doses. Antisense oligonucleotide was administered to the monkeys at 5 mg/kg three times per a week for week 1; 5 mg/kg twice per week for weeks 2 and 3; 10 mg/kg three times per week for week 4; 10 mg/kg twice per week for weeks 5 and 6; 25 mg/kg three times per week for week 7; and 25 mg/kg twice per week for weeks 8, 9, 10, 11, and 12. One control group, consisting of two male and three female monkeys, was injected subcutaneously with PBS according to the same dosing regimen. An additional experimental group, consisting of two male and three female monkeys, was injected subcutaneously with ISIS 416850 in a chronic, lower dose regimen. Antisense oligonucleotide was administered to the monkeys at 5 mg/kg three times per week for week 1; 5 mg/kg twice per week for week 2 and 3; 10 mg/kg three times per week for week 4; and 10 mg/kg twice per week for weeks 5 to 12. Body weights were measured weekly. Blood samples were collected 14 days and 5 days before the start of treatment and subsequently once per week for Factor 11 protein activity analysis in plasma, fibrinogen measurement, PT and aPTT measurements, bleeding times, and measurement of various hematologic factors. On day 85, the monkeys were euthanized by exsanguination while under deep anesthesia, and organs harvested for further analysis.
The ISIS oligonucleotide, ISIS 416850, given with the chronic dose regimen is distinguished from the other oligonucleotides with an asterisk (*).

[4] = day 22, escalating dose regimen
[5] = day 43, escalating dose regimen
[6] = day 64, escalating dose regimen
[7] = day 85, escalating dose regimen
[8] = day −14, escalating dose regimen
[9] = day 22, chronic dose regimen (*)
[10] = day 43, chronic dose regimen (*)
[11] = day −14, chronic dose regimen (*)

445522 (antisense eG*e[5mC]*eA*e[5mC]*eA*dG*dT*dT*dT*d[5mC]*dT*dG*dG*e[5mC]*eA*eG*eG*e[5mC]) [compound 445522]
Percent inhibition of Factor 11 mRNA at 375 nM (human Factor 11 mRNA; electroporation, 375 nM): 59%
Percent inhibition of Factor 11 mRNA at 750 nM (human Factor 11 mRNA; electroporation, 750 nM): 71%
Percent inhibition of Factor 11 mRNA at 1,500 nM (human Factor 11 mRNA; electroporation, 1,500 nM): 83%
Percent inhibition of Factor 11 mRNA at 3,000 nM (human Factor 11 mRNA; electroporation, 3,000 nM): 82%
Percent inhibition of Factor 11 mRNA at 6,000 nM (human Factor 11 mRNA; electroporation, 6,000 nM): 81%
Percent inhibition of Factor 11 mRNA at 12,000 nM (human Factor 11 mRNA; electroporation, 12,000 nM): 92%

ISIS 416838: MOE gapmer, nucleobases 1018 to 1042 of SEQ ID NO: 1 (Table 6) (antisense GCAACCGGGATGATGAGTGC; MOE gapmer, wing and gap sizes not given here)
ALT ([1]; 2 weeks): 61 IU/L
AST ([1]; 2 weeks): 106 IU/L
Albumin ([1]; 2 weeks): 3.5
Bilirubin ([1]; 2 weeks): 0.57 mg/dL
ALT ([1]; 4 weeks): 41 IU/L
AST ([1]; 4 weeks): 73 IU/L
Albumin ([1]; 4 weeks): 3.8
Bilirubin ([1]; 4 weeks): 0.24 mg/dL
ALT ([1]; 6 weeks): 141 IU/L
AST ([1]; 6 weeks): 107 IU/L
Albumin ([1]; 6 weeks): 3.6
Bilirubin ([1]; 6 weeks): 0.20 mg/dL
BUN ([2]; 2 weeks): 25 mg/dL
Creatinine ([2]; 2 weeks): 0.09 mg/dL
BUN ([2]; 4 weeks): 38 mg/dL
Creatinine ([2]; 4 weeks): 0.27 mg/dL
BUN ([2]; 6 weeks): 30 mg/dL
Creatinine ([2]; 6 weeks): 0.14 mg/dL
ALT [3, 4]: 36 IU/L
AST [3, 4]: 39 IU/L
Bilirubin [3, 4]: 0.17 mg/dL
ALT [3, 5]: 35 IU/L
AST [3, 5]: 32 IU/L
Bilirubin [3, 5]: 0.17 mg/dL
ALT [3, 6]: 40 IU/L
AST [3, 6]: 33 IU/L
Bilirubin [3, 6]: 0.15 mg/dL
ALT [3, 7]: 41 IU/L
AST [3, 7]: 30 IU/L
Bilirubin [3, 7]: 0.13 mg/dL
ALT [3, 8]: 76 IU/L
AST [3, 8]: 139 IU/L
Bilirubin [3, 8]: 0.26 mg/dL

ISIS 416850: MOE gapmer, nucleobases 1275 to 1318 of SEQ ID NO: 1 (Table 8) (antisense TGCACAGTTTCTGGCAGGCC; MOE gapmer, wing and gap sizes not given here)
ALT ([1]; 2 weeks): 67 IU/L
AST ([1]; 2 weeks): 72 IU/L
Albumin ([1]; 2 weeks): 3.6
Bilirubin ([1]; 2 weeks): 0.46 mg/dL
ALT ([1]; 4 weeks): 58 IU/L
AST ([1]; 4 weeks): 88 IU/L
Albumin ([1]; 4 weeks): 3.5
Bilirubin ([1]; 4 weeks): 0.23 mg/dL
ALT ([1]; 6 weeks): 102 IU/L
AST ([1]; 6 weeks): 97 IU/L
Albumin ([1]; 6 weeks): 3.1
Bilirubin ([1]; 6 weeks): 0.22 mg/dL
BUN ([2]; 2 weeks): 25 mg/dL
Creatinine ([2]; 2 weeks): 0.13 mg/dL
BUN ([2]; 4 weeks): 30 mg/dL
Creatinine ([2]; 4 weeks): 0.22 mg/dL
BUN ([2]; 6 weeks): 23 mg/dL
Creatinine ([2]; 6 weeks): 0.19 mg/dL
ALT [3, 9]: 42 IU/L
AST [3, 9]: 39 IU/L
Bilirubin [3, 9]: 0.19 mg/dL
ALT [3, 4]: 41 IU/L
AST [3, 4]: 45 IU/L
Bilirubin [3, 4]: 0.13 mg/dL
ALT [3, 10]: 41 IU/L
AST [3, 10]: 40 IU/L
Bilirubin [3, 10]: 0.18 mg/dL
ALT [3, 5]: 43 IU/L
AST [3, 5]: 50 IU/L
Bilirubin [3, 5]: 0.13 mg/dL
ALT [3, 6]: 60 IU/L
AST [3, 6]: 56 IU/L
Bilirubin [3, 6]: 0.14 mg/dL
ALT [3, 7]: 75 IU/L
AST [3, 7]: 82. IU/L
Bilirubin [3, 7]: 0.14 mg/dL
ALT [3, 11]: 80 IU/L
AST [3, 11]: 100 IU/L
Bilirubin [3, 11]: 0.28 mg/dL
ALT [3, 8]: 54 IU/L
AST [3, 8]: 81 IU/L
Bilirubin [3, 8]: 0.21 mg/dL

ISIS 416858: MOE gapmer, nucleobases 1275 to 1318 of SEQ ID NO: 1 (Table 8) (antisense ACGGCATTGGTGCACAGTTT; MOE gapmer, wing and gap sizes not given here)
ALT ([1]; 2 weeks): 190 IU/L
AST ([1]; 2 weeks): 236 IU/L
Albumin ([1]; 2 weeks): 3.4
Bilirubin ([1]; 2 weeks): 0.57 mg/dL
ALT ([1]; 4 weeks): 57 IU/L
AST ([1]; 4 weeks): 108 IU/L
Albumin ([1]; 4 weeks): 3.5
Bilirubin ([1]; 4 weeks): 0.24 mg/dL
ALT ([1]; 6 weeks): 216 IU/L
AST ([1]; 6 weeks): 178 IU/L
Albumin ([1]; 6 weeks): 2.8
Bilirubin ([1]; 6 weeks): 0.16 mg/dL
BUN ([2]; 2 weeks): 21 mg/dL
Creatinine ([2]; 2 weeks): 0.13 mg/dL
BUN ([2]; 4 weeks): 29 mg/dL
Creatinine ([2]; 4 weeks): 0.23 mg/dL
BUN ([2]; 6 weeks): 19 mg/dL
Creatinine ([2]; 6 weeks): 0.10 mg/dL
ALT [3, 4]: 28 IU/L
AST [3, 4]: 38 IU/L
Bilirubin [3, 4]: 0.18 mg/dL
ALT [3, 5]: 36 IU/L
AST [3, 5]: 39 IU/L
Bilirubin [3, 5]: 0.14 mg/dL
ALT [3, 6]: 47 IU/L
AST [3, 6]: 50 IU/L
Bilirubin [3, 6]: 0.12 mg/dL
ALT [3, 7]: 50 IU/L
AST [3, 7]: 49 IU/L
Bilirubin [3, 7]: 0.14 mg/dL
ALT [3, 8]: 47 IU/L
AST [3, 8]: 58 IU/L
Bilirubin [3, 8]: 0.27 mg/dL
